Several values for one entry are separate records, joined by “and”; a condition that tells them apart may be missing. Equal values may be shown once. Read-outs that look alike come from different tables or passages of the source.
Test: Brain distribution study
Type: in vivo, male C57BL/6 mice
Experimental: Compound KL50 dosing solution: 3.39% DMSO+96.61% (10% HP-β-CD in saline) at 2 mg/mL; • 1) Weigh 17.39 mg of compound KL50 into a clean tube. • 2) Add 0.295 mL DMSO into the tube containing the compound. • 3) Vortex the tube for 3 min and sonicate it for 4 min. • 4) Add 8.400 mL 10% HP-β-CD in saline into the tube and vortex the tube for 3 min. Compound I-1 dosing solution: 3.39% DMSO+96.61% (10% HP-β-CD in saline) at 2 mg/mL; • 1) Weigh 16.86 mg Compound I-1 into a clean tube. • 2) Add 0.286 mL DMSO into the tube containing the compound. • 3) Vortex the tube for 3 min and sonicate it for 4 min. • 4) Add 8.144 mL 10% HP-β-CD in saline into the tube and vortex the tube for 3 min.
The in-vivo pharmacokinetic and brain distribution study was conducted under the following parameters. Twenty seven C57BL/6 male mice were purchased from Shanghai JiHui Laboratory Animal Co. LTD. Each mouse weighted from 16 g to 17 g. The mice were fasted overnight and fed post 4 hr sampling. Compound KL50 and Compound I-I were administered via oral gavage (PO) at a dose of 20 mg/kg (10 mL/kg). After dosing, sampling was completed at 0.083, 0.167, 0.333, 0.5, 0.75, 1, 2, 4 and 8 hr post dose, with three mice sacrificed at each time point.
Terminal bleeding for plasma and brain was completed at each time point. Approximately 110 μL blood per time point was collected into a K2EDTA tube via the facial vein. The blood sample was put on wet ice and centrifuged to obtain plasma sample (2000 g, 5 min under 4° C.) within 15 minutes. Plasma samples were acidified with 6 μL of formic acid for every 54 μL of plasma. After blood collection, a mid-line incision was made in the animal's scalp and the skin was retracted. The skull overlying the brain was removed. Then, the whole brain was collected, rinsed with cold saline, dried on filtrate paper, and weighed; and then snap frozen by placing the brain into dry-ice. Plasma samples were stored at approximately −70° C. until analysis. Brain tissue was homogenized with 3 volumes (v/w) of PBS (1% FA) and then analyzed with LC-MS/MS. The concentration of study drug was corrected with a dilution factor of four as following: Brain concentration=brain homogenate conc.×4, assuming 1 g wet brain tissue equals to 1 mL

[1] = PO 20 mg/kg, male C57BL/6 mice, 0.083 hr, 20 mg/kg
[2] = PO 20 mg/kg, male C57BL/6 mice, 0.167 hr, 20 mg/kg
[3] = PO 20 mg/kg, male C57BL/6 mice, 0.333 hr, 20 mg/kg
[4] = PO 20 mg/kg, male C57BL/6 mice, 0.5 hr, 20 mg/kg
[5] = PO 20 mg/kg, male C57BL/6 mice, 0.75 hr, 20 mg/kg
[6] = PO 20 mg/kg, male C57BL/6 mice, 1 hr, 20 mg/kg
[7] = PO 20 mg/kg, male C57BL/6 mice, 2 hr, 20 mg/kg
[8] = PO 20 mg/kg, male C57BL/6 mice, 4 hr
[9] = PO 20 mg/kg, male C57BL/6 mice, 8 hr
[10] = brain, PO 20 mg/kg, male C57BL/6 mice
[11] = mouse, brain, PO 20 mg/kg, male C57BL/6 mice

CNC(=O)c1ncn2c(=O)n(CCF)nnc12 [Compound I-1, 3-(2-fluoroethyl)-N-methyl-4-oxo-3H,4H-imidazo[4,3-d][1,2,3,5]tetrazine-8-carboxamide]
Brain Concentration/Plasma Concentration, Individuals [1]: 0.310 and 0.329 | brain Concentration, Individuals [1]: 6300 ng/g and 6740 ng/g | Brain Concentration/Plasma Concentration, Individuals [2]: 0.473 and 0.549 | brain Concentration, Individuals [2]: 7100 ng/g and 9110 ng/g | Brain Concentration/Plasma Concentration, Individuals [3]: 0.606 and 0.651 | brain Concentration, Individuals [3]: 6850 ng/g and 8730 ng/g | Brain Concentration/Plasma Concentration, Individuals [4]: 0.677 and 0.522 | brain Concentration, Individuals [4]: 4770 ng/g and 3750 ng/g | Brain Concentration/Plasma Concentration, Individuals [5]: 0.623 and 0.560 | brain Concentration, Individuals [5]: 2500 ng/g and 1920 ng/g | Brain Concentration/Plasma Concentration, Individuals [6]: 0.626 and 0.527 | brain Concentration, Individuals [6]: 952 ng/g and 1280 ng/g | Brain Concentration/Plasma Concentration, Individuals [7]: 0.483 and 0.490 | brain Concentration, Individuals [7]: 155 ng/g and 345 ng/g and 90.6 ng/g | brain Concentration, Individuals (below limit) [8]: BQL (Below the quantifiable limit of 1.00 ng/mL or ng/g for Compound I-1 in mouse plasma and brain homogenate) | brain Concentration, Mean (below limit) [8]: BQL (Below the quantifiable limit of 1.00 ng/mL or ng/g for Compound I-1 in mouse plasma and brain homogenate) | brain Concentration, Individuals (below limit) [9]: BQL (Below the quantifiable limit of 1.00 ng/mL or ng/g for Compound I-1 in mouse plasma and brain homogenate) | brain Concentration, Mean (below limit) [9]: BQL (Below the quantifiable limit of 1.00 ng/mL or ng/g for Compound I-1 in mouse plasma and brain homogenate) | AUCINF [10]: 4849 ng·h/g | AUClast [10]: 4749 ng·h/g | concentration at 0.083 hr (male, C57BL/6, mouse, brain, po, 20 mg/kg, PO 20 mg/kg, male C57BL/6 mice, 0.083 hr, N=3, read-out: brain Concentration, Mean): 6300 ng/g | concentration at 0.083 hr (male, C57BL/6, mouse, brain, po, 20 mg/kg, PO 20 mg/kg, male C57BL/6 mice, 0.083 hr, read-out: brain Concentration, Individuals): 5860 ng/g | concentration at 0.167 hr (male, C57BL/6, mouse, brain, po, 20 mg/kg, PO 20 mg/kg, male C57BL/6 mice, 0.167 hr, N=3, read-out: brain Concentration, Mean): 7210 ng/g | concentration at 0.167 hr (male, C57BL/6, mouse, brain, po, 20 mg/kg, PO 20 mg/kg, male C57BL/6 mice, 0.167 hr, read-out: brain Concentration, Individuals): 5420 ng/g | concentration at 0.333 hr (male, C57BL/6, mouse, brain, po, 20 mg/kg, PO 20 mg/kg, male C57BL/6 mice, 0.333 hr, N=3, read-out: brain Concentration, Mean): 6840 ng/g | concentration at 0.333 hr (male, C57BL/6, mouse, brain, po, 20 mg/kg, PO 20 mg/kg, male C57BL/6 mice, 0.333 hr, read-out: brain Concentration, Individuals): 4950 ng/g | concentration at 0.5 hr (male, C57BL/6, mouse, brain, po, 20 mg/kg, PO 20 mg/kg, male C57BL/6 mice, 0.5 hr, N=3, read-out: brain Concentration, Mean): 3940 ng/g | concentration at 0.5 hr (male, C57BL/6, mouse, brain, po, 20 mg/kg, PO 20 mg/kg, male C57BL/6 mice, 0.5 hr, read-out: brain Concentration, Individuals): 3310 ng/g | concentration at 0.75 hr (male, C57BL/6, mouse, brain, po, 20 mg/kg, PO 20 mg/kg, male C57BL/6 mice, 0.75 hr, N=3, read-out: brain Concentration, Mean): 2240 ng/g | concentration at 0.75 hr (male, C57BL/6, mouse, brain, po, 20 mg/kg, PO 20 mg/kg, male C57BL/6 mice, 0.75 hr, read-out: brain Concentration, Individuals): 2290 ng/g | concentration at 1 hr (male, C57BL/6, mouse, brain, po, 20 mg/kg, PO 20 mg/kg, male C57BL/6 mice, 1 hr, N=3, read-out: brain Concentration, Mean): 1120 ng/g | concentration at 1 hr (male, C57BL/6, mouse, brain, po, 20 mg/kg, PO 20 mg/kg, male C57BL/6 mice, 1 hr, read-out: brain Concentration, Individuals): 1140 ng/g | concentration at 2 hr (male, C57BL/6, mouse, brain, po, 20 mg/kg, PO 20 mg/kg, male C57BL/6 mice, 2 hr, N=3, read-out: brain Concentration, Mean): 197 ng/g | Kp (male, C57BL/6, mouse, brain/plasma, po, 20 mg/kg, AUCbrain/AUCplasma, PO 20 mg/kg, male C57BL/6 mice, heading: AUCbrain/AUCplasma): 49.1% | Kp at 0.083 hr (male, C57BL/6, mouse, brain/plasma, po, 20 mg/kg, PO 20 mg/kg, male C57BL/6 mice, 0.083 hr, N=3, read-out: Brain Concentration/Plasma Concentration, Mean): 0.305 | Kp at 0.083 hr (male, C57BL/6, mouse, brain/plasma, po, 20 mg/kg, PO 20 mg/kg, male C57BL/6 mice, 0.083 hr, read-out: Brain Concentration/Plasma Concentration, Individuals): 0.276 | Kp at 0.167 hr (male, C57BL/6, mouse, brain/plasma, po, 20 mg/kg, PO 20 mg/kg, male C57BL/6 mice, 0.167 hr, N=3, read-out: Brain Concentration/Plasma Concentration, Mean): 0.501 | Kp at 0.167 hr (male, C57BL/6, mouse, brain/plasma, po, 20 mg/kg, PO 20 mg/kg, male C57BL/6 mice, 0.167 hr, read-out: Brain Concentration/Plasma Concentration, Individuals): 0.48 | Kp at 0.333 hr (male, C57BL/6, mouse, brain/plasma, po, 20 mg/kg, PO 20 mg/kg, male C57BL/6 mice, 0.333 hr, N=3, read-out: Brain Concentration/Plasma Concentration, Mean): 0.606 | Kp at 0.333 hr (male, C57BL/6, mouse, brain/plasma, po, 20 mg/kg, PO 20 mg/kg, male C57BL/6 mice, 0.333 hr, read-out: Brain Concentration/Plasma Concentration, Individuals): 0.561 | Kp at 0.5 hr (male, C57BL/6, mouse, brain/plasma, po, 20 mg/kg, PO 20 mg/kg, male C57BL/6 mice, 0.5 hr, N=3, read-out: Brain Concentration/Plasma Concentration, Mean): 0.575 | Kp at 0.5 hr (male, C57BL/6, mouse, brain/plasma, po, 20 mg/kg, PO 20 mg/kg, male C57BL/6 mice, 0.5 hr, read-out: Brain Concentration/Plasma Concentration, Individuals): 0.525 | Kp at 0.75 hr (male, C57BL/6, mouse, brain/plasma, po, 20 mg/kg, PO 20 mg/kg, male C57BL/6 mice, 0.75 hr, N=3, read-out: Brain Concentration/Plasma Concentration, Mean): 0.586 | Kp at 0.75 hr (male, C57BL/6, mouse, brain/plasma, po, 20 mg/kg, PO 20 mg/kg, male C57BL/6 mice, 0.75 hr, read-out: Brain Concentration/Plasma Concentration, Individuals): 0.575 | Kp at 1 hr (male, C57BL/6, mouse, brain/plasma, po, 20 mg/kg, PO 20 mg/kg, male C57BL/6 mice, 1 hr, N=3, read-out: Brain Concentration/Plasma Concentration, Mean): 0.559 | Kp at 1 hr (male, C57BL/6, mouse, brain/plasma, po, 20 mg/kg, PO 20 mg/kg, male C57BL/6 mice, 1 hr, read-out: Brain Concentration/Plasma Concentration, Individuals): 0.523 | Kp at 2 hr (male, C57BL/6, mouse, brain/plasma, po, 20 mg/kg, PO 20 mg/kg, male C57BL/6 mice, 2 hr, N=3, read-out: Brain Concentration/Plasma Concentration, Mean): 0.468 | Kp at 2 hr (male, C57BL/6, mouse, brain/plasma, po, 20 mg/kg, PO 20 mg/kg, male C57BL/6 mice, 2 hr, read-out: Brain Concentration/Plasma Concentration, Individuals): 0.432 | Cmax [11]: 7210 ng/g | MRT inf [11]: 31.6 min | Tmax [11]: 10 min | half-life [11]: 21.1 min | concentration in brain tissue compared with KL50 (in words) (oral administration to mice): much larger concentration in brain tissue

From US20240400572A1, “COMPOUNDS AND METHODS FOR TREATING CANCERS THAT ARE MGMT DEFICIENT REGARDLESS OF MMR STATUS” (Yale University, priority 2021, published 2024)
